Reference: paper PMC6838683, “Discovery of Human Signaling Systems: Pairing Peptides to G Protein-Coupled Receptors” (Cell, 2019)

Tests used:
[1] = molecular target: T1, GPR139 (Homo sapiens, UniProt Q6DWJ6); test: Repeat of proposed literature pairing (mass redistribution and/or internalization); assay type: cell-based; settings: GPR139
T1 construct: hIL-2Ra signal peptide (N); expressed in transfected cells
T1 sequence (Q6DWJ6 2-353 limits assumed): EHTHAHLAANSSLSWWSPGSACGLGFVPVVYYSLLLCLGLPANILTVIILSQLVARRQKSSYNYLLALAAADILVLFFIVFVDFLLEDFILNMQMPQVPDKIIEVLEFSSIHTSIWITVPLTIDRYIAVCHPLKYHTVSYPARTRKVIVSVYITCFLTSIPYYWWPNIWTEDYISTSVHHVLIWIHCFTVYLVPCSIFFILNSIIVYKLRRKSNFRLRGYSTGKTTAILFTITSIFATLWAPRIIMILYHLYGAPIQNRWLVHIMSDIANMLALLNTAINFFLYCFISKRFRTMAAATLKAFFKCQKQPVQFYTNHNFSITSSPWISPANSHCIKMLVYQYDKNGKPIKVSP
Source text: DMR assays provide a single integrated readout of ligand-dependent cellular response, utilizing an optical biosensor in specialized microplates to detect wavelength shifts of reflected light as it passes through the biosensor and the lower portion of the cell (∼150-200 nm). As a signal pathway agnostic approach, DMR assays are well-suited to the study of GPCRs ([Fang et al., 2008], [Schröder et al., 2011]). The mass redistribution response (Δ picometer (pm)) likely reflects a number of intracellular events, including cytoskeletal rearrangement, protein trafficking and receptor internalization. Orphan receptor-expressing cells were gently washed twice with assay buffer (HBSS with 1 mM CaCl2, 1 mM MgCl2, 20 mM HEPES, 0.01% pluronic F-68, pH 7.4) containing 0.1% DMSO and cells were equilibrated for 90 min at 22°C in the EPIC Benchtop (BT) System (Corning) to establish a stable DMR signal. After 3-5 min baseline recordings, peptides (10 μM) were added in duplicate wells using an electronic 384-channel Viaflo pipette (Integra Biosciences, Switzerland) and DMR responses were measured for 60 min at 22°C. 100 nM norepinephrine was included as an internal assay control to assess the cellular DMR response via endogenously-expressed adrenoceptors in the TREx 293 cells. Real-time data were processed using the BT to column converter MS-Excel macro (Corning) and analyzed in GraphPad Prism 7.0. DMR recordings in peptide screening experiments were buffer and solvent corrected and the area under the curve (AUC) was quantified. For subsequent validation experiments, peptides were diluted in assay buffer containing 0.1% DMSO and DMR assays were performed as above. […] Data represent mean ± standard error of the mean (SEM) from at least 3 biologically independent experiments.
A TR-FRET real-time internalization assay was used to examine peptide-dependent changes in orphan receptor localization as described previously ([Foster and Bräuner-Osborne, 2018]). Surface-expressed SNAP-tagged receptors were labeled with a cell-impermeable luminescent terbium cryptate (100 nM SNAP Lumi4-Tb; Cisbio, France) for 1 hr at 37°C. Cells were washed to remove excess terbium and incubated with fluorescein-O-acetic acid (100 μM; Sigma Aldrich) for 5 min at 37°C. Peptides were added as for DMR assays, and internalization responses were recorded for 60 min at 37°C using an EnVision 2104 Multimode plate reader (PerkinElmer). 100 nM GLP-1 was used as a positive control for SNAP-GLP1R internalization. Real-time internalization responses were calculated based on TR-FRET (excitation 340 nm; emission 520 nm and 615 nm), and were expressed as the ratio between donor (terbium) and acceptor (fluorescein) emission. For peptide screening analysis (both DMR and internalization assays), we calculated the area under the curve from the real-time traces. […] Validation experiments for receptor internalization were performed as above. Internalization data was processed in MS-Excel and area under the curve was used to generate concentration-response curves using GraphPad Prism 7.0. Data represent mean ± standard error of the mean (SEM) from at least 3 biologically independent experiments.

[2] = molecular target: T1, GPR139; test: β-arrestin recruitment (Tango), validation; assay type: cell-based
Source text: (§1) Supplement mmc7.xlsx, sheet "Peptide validation data" | column: Comment

[3] = molecular target: T1, GPR139; test: IP1 accumulation; assay type: cell-based; settings: mean, SEM and n
Source text: Supplement mmc7.xlsx, sheet "Peptide validation data" | column: Emax; pEC50

[4] = molecular target: T2, GPR176 (Homo sapiens, UniProt Q14439); test: Real-time receptor internalization, validation; assay type: cell-based
T2 construct: host or cells: HTLA cells (HEK293-derived)
T2 sequence (Q14439 1-515): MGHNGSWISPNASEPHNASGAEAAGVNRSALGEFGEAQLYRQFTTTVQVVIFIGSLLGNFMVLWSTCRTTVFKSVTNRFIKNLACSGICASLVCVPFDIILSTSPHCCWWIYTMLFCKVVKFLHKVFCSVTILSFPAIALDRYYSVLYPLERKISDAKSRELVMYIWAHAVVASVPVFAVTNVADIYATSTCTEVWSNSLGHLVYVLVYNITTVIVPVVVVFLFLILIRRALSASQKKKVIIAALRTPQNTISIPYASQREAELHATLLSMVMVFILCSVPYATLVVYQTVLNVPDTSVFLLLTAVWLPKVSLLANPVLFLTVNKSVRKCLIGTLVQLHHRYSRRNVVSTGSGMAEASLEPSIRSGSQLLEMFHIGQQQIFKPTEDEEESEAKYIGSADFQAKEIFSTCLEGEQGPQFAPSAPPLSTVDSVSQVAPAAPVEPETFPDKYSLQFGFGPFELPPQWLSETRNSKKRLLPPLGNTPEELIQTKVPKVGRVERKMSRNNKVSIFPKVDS
Source text: as §1

[5] = molecular target: T2, GPR176; test: Dynamic mass redistribution (DMR), validation; assay type: cell-based
Source text: as §1

[6] = tested on: 120 GPCR targets, including all available orphan receptors and 27 known class A peptide receptors; test: Peptide library screen, β-arrestin recruitment (Tango, fold change, 10 μM); assay type: cell-based, human; settings: Tango; receptor(s) at which the known library peptide was active, among its known GPCR target(s); validated pairings
Summary of the method: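 HTLA cells (HEK293 with tTA-dependent luciferase and β-arrestin2-TEV) transiently transfected with Tango GPCR constructs, then stimulated overnight with 10 μM peptides in 1% dFBS medium. Luciferase luminescence read after 15–20 min Bright-Glo incubation at room temperature.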

[7] = molecular target: T2, GPR176; test: Real-time receptor internalization (AUC), peptide validation; assay type: cell-based; settings: Emax and pEC50 n.d., n = 2
Source text: as §1

[8] = molecular target: T2, GPR176; test: β-arrestin recruitment (Tango), indicative pairing; assay type: cell-based; settings: mean, n = 3
[9] = molecular target: T2, GPR176; test: Dynamic mass redistribution (DMR, AUC), peptide validation; assay type: cell-based; settings: Emax and pEC50 n.d., n = 2
Source text: as §1

## CSCC[C@H](NC(=O)[C@H](CO)NC(=O)[C@H](Cc1ccc(O)cc1)NC(=O)[C@@H](N)CO)C(=O)N[C@@H](CCC(=O)O)C(=O)N[C@@H](Cc1c[nH]cn1)C(=O)N[C@@H](Cc1ccccc1)C(=O)N[C@@H](CCCNC(=N)N)C(=O)N[C@@H](Cc1c[nH]c2ccccc12)C(=O)NCC(=O)N[C@@H](CCCCN)C(=O)N1CCC[C@H]1C(=O)N[C@H](C(N)=O)C(C)C [Alpha-MSH (des-acetyl MSH)]
[1]; data from single experiment (n = 1)
  Emax, Internalization (AUC): 2.9
[1]; mean, SEM and n
  Emax, DMR (peak): 39.5
[1]; mean, SEM and n, read-out: pEC50, DMR (peak) (converted)
  EC50: 0.0363 µM
[2]
  Comment on response, Tango (fold over basal); Emax and pEC50 n.d.: No response
[3]
  Emax, IP1: 60.8 nM
[3]; read-out: pEC50, IP1 (converted)
  EC50: 10 µM

## RSVNPYLQ [SCG5 (181-188)]
[4]
  Comment on response, Internalization (AUC); Emax and pEC50 n.d.: No response
[5]
  Comment on response, DMR (AUC); Emax and pEC50 n.d.: No response

## SYSMEHFRWGKPVGKKRRPVKVYPNGAEDESAEAFPLEF [Peptide 208]
[6]
  Active at: (activity in b-arrestin recruitment assays): MC4R
[7]
  Comment, Internalization (AUC): No response
[8]
  Emax, Tango (fold over basal): 8.0 fold over basal
  pEC50, Tango (fold over basal): 5.06
[9]
  Comment, DMR (AUC): No response
